Experimental data from patent US10800789B2, “Antiviral compounds” (Gilead Pharmasset LLC, priority 2012, dated 2020).
Like-named read-outs stand apart in the source and are kept apart here.

Columns and labels:
[1] = system: NS5A chimeric genotype 2a JFH-1 replicon with genotype 2a J6 strain NS5A gene (M31 present); test: Replicon assay, genotype 2a J6 NS5A chimera; format: cell-based, HCV
Experimental: (§1) Evaluation of Cell-Based Anti-HCV Activity:
(§2) Antiviral potency (EC50) was determined using a Renilla luciferase (RLuc)-based HCV replicon reporter assay. To perform the assay for genotype 1 and 2a JFH-1, stable HCV 1a RLuc replicon cells (harboring a dicistronic genotype 1a H77 replicon that encodes a RLuc reporter), stable HCV 1b RLuc replicon cells (harboring a dicistronic genotype 1b Con1 replicon that encodes a RLuc reporter), or stable HCV 2a JFH-1 Rluc replicon cells (harboring a dicistronic genotype 2a JFH-1 replicon that encodes a RLuc reporter; with L31 present in NS5A) were dispensed into 384-well plates for EC50 assays. To perform the assay for genotype 2a (with M31 present in NS5A) or 2b, NS5A chimeric genotype 2a JFH-1 replicons that encodes a RLuc-Neo reporter and either genotype 2a J6 strain NS5A gene or genotype 2b MD2b-1 strain NS5A gene (both with M31 present) respectively, were either transiently transfected (t) into Huh-Lunet cells or were established as stably replicating replicon cells (s) is provided. Either cells were dispensed into 384-well plates for EC50 assays. To perform the assay for genotype 3 and 4, NS5A chimeric genotype 1b Con1 replicons that encodes a Pi-RLuc reporter and either genotype 3a S52 strain NS5A gene or genotype 4a ED43 strain NS5A gene respectively, were transiently transfected (t) into Huh-Lunet cells, which were subsequently dispensed into 384-well plates. Compounds were dissolved in DMSO at a concentration of 10 mM and diluted in DMSO either manually or using an automated pipeting instrument. Serially 3-fold diluted compounds were either manually mixed with cell culture media and added to the seeded cells or directly added to the cells using an automated instrument. DMSO was used as a negative (solvent; no inhibition) control, and the protease inhibitor ITMN-191 was included at a concentration>100×EC50 as a positive control. 72 hours later, cells were lysed and Renilla luciferase activity quantified as recommended by the manufacturer (Promega-Madison, Wis.). Non-linear regression was performed to calculate EC50 values.

[2] = system: NS5A chimeric genotype 2a JFH-1 replicon with genotype 2b MD2b-1 strain NS5A gene (M31 present); test: Replicon assay, genotype 2b NS5A chimera; format: cell-based, HCV
Experimental: as §1, §2

[3] = system: NS5A chimeric genotype 1b Con1 replicon with genotype 3a S52 strain NS5A gene; test: Replicon assay, genotype 3a NS5A chimera; format: cell-based, HCV
[4] = system: stable HCV 1a RLuc replicon cells (dicistronic genotype 1a H77 replicon); test: Renilla luciferase HCV replicon reporter assay, genotype 1a; format: cell-based; details: stable 1a H77 RLuc replicon cells
Experimental: as §1, §2

[5] = system: stable HCV 1b RLuc replicon cells (dicistronic genotype 1b Con1 replicon); test: Renilla luciferase HCV replicon reporter assay, genotype 1b; format: cell-based; details: stable 1b Con1 RLuc replicon cells, 72 hours, read-out: 1b
Experimental: as §1, §2

[6] = system: stable HCV 2a JFH-1 Rluc replicon cells (L31 present in NS5A); test: Renilla luciferase HCV replicon reporter assay, genotype 2a JFH-1; format: cell-based
Experimental: as §1, §2

[7] = system: NS5A chimeric genotype 1b Con1 replicon with genotype 4a ED43 strain NS5A gene; test: Replicon assay, genotype 4a NS5A chimera; format: cell-based, HCV
[8] = Hepatitis C virus, read-out: 2a J6 (t) (nM), genotype 2a J6 NS5A chimeric replicon (M31), transiently transfected (t) into Huh-Lunet cells
[9] = Hepatitis C virus, read-out: 2a J6 (t), transiently transfected (t) into Huh-Lunet cells, activity range
[10] = Hepatitis C virus, 2BS, read-out: 2b (s), stably replicating replicon cells (s), activity range
[11] = Hepatitis C virus, read-out: 2b (s) (nM), genotype 2b MD2b-1 NS5A chimeric replicon (M31), stably replicating replicon cells (s)
[12] = Hepatitis C virus, read-out: 3a (s) (nM), genotype 3a NS5A chimeric replicon, stable replicon cells (s)
[13] = Hepatitis C virus, read-out: 3a (s), (s), activity range
[14] = Hepatitis C virus, 72 h, activity range
[15] = Hepatitis C virus, read-out: 2a JFH (nM), genotype 2a JFH-1 replicon (L31 in NS5A), stable cells
[16] = Hepatitis C virus, read-out: 2a JFH, stable 2a JFH-1 Rluc replicon cells, L31 in NS5A, activity range
[17] = Hepatitis C virus, read-out: 4a (s) (nM), genotype 4a NS5A chimeric replicon, stable replicon cells (s)
[18] = Hepatitis C virus, read-out: 4a (s), (s), activity range

CC[C@H]1CC[C@@H](c2nc3ccc4cc5c(cc4c3[nH]2)OCc2cc(-c3cnc([C@@H]4CC[C@H](C)N4C(=O)[C@@H](NC(=O)OC)[C@@H](C)OC)[nH]3)ccc2-5)N1C(=O)[C@@H](NC(=O)OC)[C@@H](C)OC [EK, methyl[(2S,3R)-1-{(2S,5S)-2-[5-(2-{(2S,5S)-5-ethyl-1-[N-(methoxycarbonyl)-O-methyl-L-threonyl]pyrrolidin-2-yl}-1,11-dihydroisochromeno[4′,3′:6,7]naphtho[1,2-d]imidazol-9-yl)-1H-imidazol-2-yl]-5-methylpyrrolidin-1-yl}-3-methoxy-1-oxobutan-2-yl]carbamate]
EC50 [1, 8]: 0.116 nM
EC50 [1, 9]: 0.1 to 0.999 nM
EC50 [2, 10]: 0.1 to 0.999 nM
EC50 [2, 11]: 0.238 nM
EC50 [3, 12]: 0.173 nM
EC50 [3, 13]: 0.1 to 0.999 nM
EC50 ([4]; Hepatitis C virus, 72 h): 0.034 nM
EC50 [4, 14]: < 0.1 nM
EC50 ([5]; Hepatitis C virus, 72 h): 0.05 nM
EC50 [6, 15]: 0.03 nM
EC50 [6, 16]: < 0.1 nM
EC50 [7, 17]: 0.025 nM
EC50 [7, 18]: < 0.1 nM

COC[C@H]1C[C@@H](c2nc(C3CC3)c(-c3ccc4c(c3)COc3cc5c(ccc6nc([C@@H]7CC[C@H](C)N7C(=O)[C@@H](NC(=O)OC)C(C)C)[nH]c65)cc3-4)[nH]2)N(C(=O)[C@H](NC(=O)OC)c2ccccc2)C1 [FV, Methyl {(1R)-2-[(2S,4S)-2-(4-cyclopropyl-5-{2-[(2S,5S)-1-{(2S)-2-[(methoxycarbonyl)amino]-3-methylbutanoyl}-5-methylpyrrolidin-2-yl]-1,11-dihydroisochromeno[4′,3′:6,7]naphtho[1,2-d]imidazol-9-yl}-1H-imidazol-2-yl)-4-(methoxymethyl)pyrrolidin-1-yl]-2-oxo-1-phenylethyl}carbamate]
EC50 ([1]; read-out: 2a J6 (t), genotype 2a J6 NS5A chimeric replicon (M31), transiently transfected (t) into Huh-Lunet cells): 3.78 nM
EC50 ([1]; read-out: 2a J6 (t), transiently transfected (t) into Huh-Lunet cells, activity range): 1 to 44 nM
EC50 ([2]; Hepatitis C virus, read-out: 2b (t) (nM), genotype 2b MD2b-1 NS5A chimeric replicon (M31), transiently transfected (t)): 0.772 nM
EC50 ([2]; Hepatitis C virus, read-out: 2b (t), transiently transfected (t) into Huh-Lunet cells, activity range): 0.1 to 0.999 nM
EC50 ([2]; read-out: 2b (s), genotype 2b MD2b-1 NS5A chimeric replicon (M31), stably replicating replicon cells (s)): 2.55 nM
EC50 ([2]; read-out: 2b (s), stably replicating replicon cells (s), activity range): 1 to 44 nM
EC50 ([3]; read-out: 3a (s), (s), activity range): 1 to 44 nM
EC50 ([3]; read-out: 3a (s), genotype 3a NS5A chimeric replicon, stable replicon cells (s)): 5.25 nM
EC50 ([4]; 72 hours): 0.023 nM
EC50 ([4]; 72 hours, activity range): < 0.1 nM
EC50 [5]: 0.036 nM
EC50 ([6]; read-out: 2a JFH, genotype 2a JFH-1 replicon (L31 in NS5A), stable cells): 0.111 nM
EC50 ([6]; read-out: 2a JFH, stable 2a JFH-1 Rluc replicon cells, L31 in NS5A, activity range): 0.1 to 0.999 nM
EC50 ([7]; read-out: 4a (s), (s), activity range): < 0.1 nM
EC50 ([7]; read-out: 4a (s), genotype 4a NS5A chimeric replicon, stable replicon cells (s)): 0.029 nM

CC[C@H](C)[C@H](NC(=O)OC)C(=O)N1C[C@@H](COC)C[C@H]1c1nc2ccc3cc4c(cc3c2[nH]1)OCc1cc(-c2cnc([C@@H]3CC[C@H](C)N3C(=O)[C@@H](NC(=O)OC)[C@@H](C)OC)[nH]2)ccc1-4 [ED, methyl{(2S,3S)-1-[(2S,4S)-2-(9-{2-[(2S,5S)-1-{(2S,3R)-3-methoxy-2-[(methoxycarbonyl)amino]butanoyl}-5-methylpyrrolidin-2-yl]-1H-imidazol-5-yl}-1,11-dihydroisochromeno[4′,3′:6,7]naphtho[1,2-d]imidazol-2-yl)-4-(methoxymethyl)pyrrolidin-1-yl]-3-methyl-1-oxopentan-2-yl}carbamate]
EC50 [1, 8]: 0.021 nM
EC50 [1, 9]: < 0.1 nM
EC50 [2, 10]: 0.1 to 0.999 nM
EC50 [2, 11]: 0.241 nM
EC50 [3, 12]: 0.099 nM
EC50 [3, 13]: < 0.1 nM
EC50 ([4]; Hepatitis C virus, 72 h): 0.015 nM
EC50 [4, 14]: < 0.1 nM
EC50 ([5]; Hepatitis C virus, 72 h): 0.029 nM
EC50 [6, 15]: 0.011 nM
EC50 [6, 16]: < 0.1 nM
EC50 [7, 17]: 0.025 nM
EC50 [7, 18]: < 0.1 nM

CC[C@H]1C[C@@H](c2ncc(-c3ccc4c(c3)COc3cc5c(ccc6nc([C@@H]7CC[C@H](C)N7C(=O)[C@@H](NC(=O)OC)C(C)C)[nH]c65)cc3-4)[nH]2)N(C(=O)[C@@H](NC(=O)OC)C(C)C)C1 [GW]
EC50 [1, 8]: 0.771 nM
EC50 [1, 9]: 0.1 to 0.999 nM
EC50 [2, 10]: 1 to 44 nM
EC50 [2, 11]: 2.41 nM
EC50 [3, 12]: 0.127 nM
EC50 [3, 13]: 0.1 to 0.999 nM
EC50 ([4]; Hepatitis C virus, 72 h): 0.017 nM
EC50 [4, 14]: < 0.1 nM
EC50 ([5]; Hepatitis C virus, 72 h): 0.015 nM
EC50 [6, 15]: 0.018 nM
EC50 [6, 16]: < 0.1 nM
EC50 [7, 17]: 0.01 nM
EC50 [7, 18]: < 0.1 nM

COC(=O)N[C@H](C(=O)N1C[C@H]2C[C@H]2[C@H]1c1ncc(-c2ccc3c(c2)COc2cc4c(ccc5nc([C@@H]6CC[C@H](C)N6C(=O)[C@@H](NC(=O)OC)C(C)C)[nH]c54)cc2-3)[nH]1)C(C)C [HR]
EC50 [1, 8]: 1.12 nM
EC50 [1, 9]: 1 to 44 nM
EC50 [2, 10]: 1 to 44 nM
EC50 [2, 11]: 2.18 nM
EC50 [3, 12]: 0.047 nM
EC50 [3, 13]: < 0.1 nM
EC50 ([4]; Hepatitis C virus, 72 h): 0.015 nM
EC50 [4, 14]: < 0.1 nM
EC50 ([5]; Hepatitis C virus, 72 h): 0.024 nM
EC50 [6, 15]: 0.022 nM
EC50 [6, 16]: < 0.1 nM
EC50 [7, 17]: 0.015 nM
EC50 [7, 18]: < 0.1 nM

CC[C@H](C)[C@H](NC(=O)OC)C(=O)N1C[C@@H](COC)C[C@H]1c1ncc(-c2ccc3c(c2)COc2cc4c(ccc5nc([C@@H]6CC[C@H](C)N6C(=O)[C@@H](NC(=O)OC)[C@@H](C)OC)[nH]c54)cc2-3)[nH]1 [FT, Methyl {(2S,3S)-1-[(2S,4S)-2-(5-{2-[(2S,5S)-1-{(2S,3R)-3-methoxy-2-[(methoxycarbonyl)amino]butanoyl}-5-methylpyrrolidin-2-yl]-1,11-dihydroisochromeno[4′,3′:6,7]naphtho[1,2-d]imidazol-9-yl}-1H-imidazol-2-yl)-4-(methoxymethyl)pyrrolidin-1-yl]-3-methyl-1-oxopentan-2-yl}carbamate]
EC50 [2, 10]: 0.1 to 0.999 nM
EC50 [2, 11]: 0.395 nM
EC50 [3, 12]: 0.283 nM
EC50 [3, 13]: 0.1 to 0.999 nM
EC50 ([4]; Hepatitis C virus, 72 h): 0.04 nM
EC50 [4, 14]: < 0.1 nM
EC50 ([5]; Hepatitis C virus, 72 h): 0.045 nM
EC50 [6, 15]: 0.029 nM
EC50 [6, 16]: < 0.1 nM
EC50 [7, 17]: 0.028 nM
EC50 [7, 18]: < 0.1 nM

CC[C@H](C)[C@H](NC(=O)OC)C(=O)N1[C@@H](C)CC[C@H]1c1nc2ccc3cc4c(cc3c2[nH]1)OCc1cc(-c2cnc([C@@H]3C[C@H](COC)CN3C(=O)[C@@H](NC(=O)OC)C(C)C)[nH]2)ccc1-4 [FS, Methyl {(2S,3S)-1-[(2S,5S)-2-(9-{2-[(2S,4S)-1-{(2S)-2-[(methoxycarbonyl)amino]-3-methylbutanoyl}-4-(methoxymethyl)pyrrolidin-2-yl]-1H-imidazol-5-yl}-1,11-dihydroisochromeno[4′,3′:6,7]naphtho[1,2-d]imidazol-2-yl)-5-methylpyrrolidin-1-yl]-3-methyl-1-oxopentan-2-yl}carbamate]
EC50 [2, 10]: 0.1 to 0.999 nM
EC50 [2, 11]: 0.784 nM
EC50 [3, 12]: 0.411 nM
EC50 [3, 13]: 0.1 to 0.999 nM
EC50 ([4]; Hepatitis C virus, 72 h): 0.024 nM
EC50 [4, 14]: < 0.1 nM
EC50 ([5]; Hepatitis C virus, 72 h): 0.025 nM
EC50 [6, 15]: 0.025 nM
EC50 [6, 16]: < 0.1 nM
EC50 [7, 17]: 0.017 nM
EC50 [7, 18]: < 0.1 nM

CC[C@H]1CC[C@@H](c2nc3ccc4cc5c(cc4c3[nH]2)OCc2cc(-c3cnc([C@@H]4C[C@@H]6CCC[C@@H]6N4C(=O)[C@@H](NC(=O)OC)[C@@H](C)CC)[nH]3)ccc2-5)N1C(=O)[C@@H](NC(=O)OC)C1CCOCC1 [IX]
EC50 [2, 10]: 0.1 to 0.999 nM
EC50 [2, 11]: 0.236 nM
EC50 [3, 12]: 0.246 nM
EC50 [3, 13]: 0.1 to 0.999 nM
EC50 ([4]; Hepatitis C virus, 72 h): 0.035 nM
EC50 [4, 14]: < 0.1 nM
EC50 ([5]; Hepatitis C virus, 72 h): 0.052 nM
EC50 [6, 15]: 0.024 nM
EC50 [6, 16]: < 0.1 nM
EC50 [7, 17]: 0.057 nM
EC50 [7, 18]: < 0.1 nM
